# Reference: the supplement of paper PMC10307832
# Tests used:
# Experiment in all cases: relative viability (nuclei count vs DMSO), 5 days (fraction); higher = more cells survive
# NCI-H1792 = test system: NCI-H1792
# In short: (§1)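 After 5 days of treatment, lung cancer cells in 1536-well plates were fixed and stained in a single step (final 0.05% Triton X-100, 1% formaldehyde, 1 ug/ml Hoechst) and their nuclei counted on 4× images. Treatment had been applied by pin tool the day after seeding as one drug alone or as a fixed anchor-drug dose with five library-drug doses (not always all listed) in √10 steps. Relative viability is the nuclei count of treated wells divided by that of vehicle wells, and values are medians of duplicate plates.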
# NCI-H838 = test system: NCI-H838
# In short: as §1
# HCC-44 = test system: HCC-44
# In short: as §1
# NCI-H650 = test system: NCI-H650
# In short: as §1
# NCI-H358 = test system: NCI-H358
# In short: as §1
# EKVX = test system: EKVX
# In short: as §1
# NCI-H23 = test system: NCI-H23
# In short: as §1
# NCI-H1650 = test system: NCI-H1650
# In short: as §1
# NCI-H441 = test system: NCI-H441
# In short: as §1
# HCC-15 = test system: HCC-15
# In short: as §1
# BEN = test system: BEN
# In short: as §1
# NCI-H2342 = test system: NCI-H2342
# In short: as §1
# HCC-827 = test system: HCC-827
# In short: as §1
# NCI-H1437 = test system: NCI-H1437
# In short: as §1
# A-427 = test system: A-427
# In short: as §1
# NCI-H1975 = test system: NCI-H1975
# In short: as §1
# HARA = test system: HARA
# In short: as §1
# SW 900 = test system: SW 900
# In short: as §1
# COR-L23 = test system: COR-L23
# In short: as §1
# SK-MES-1 = test system: SK-MES-1
# In short: as §1
# 201T = test system: 201T
# In short: as §1
# NCI-H596 = test system: NCI-H596
# In short: as §1
smiles,measurement,setting,value
Nc1ccn([C@@H]2O[C@H](CO)[C@@H](O)[C@@H]2O)c(=O)n1 [Cytarabine] + COc1cccc2cc(-c3nc([C@H]4CC[C@H](C(=O)O)CC4)n4ncnc(N)c34)[nH]c12 [OSI-027] (partner 0.5 µM),relative viability,NCI-H1792; first compound 0.005 µM,0.757
same,relative viability,NCI-H1792; first compound 0.01581 µM,0.664
same,relative viability,NCI-H1792; first compound 0.05 µM,0.738
same,relative viability,NCI-H1792; first compound 0.1581 µM,0.615
same,relative viability,NCI-H1792; first compound 0.5 µM,0.427
same,relative viability,NCI-H838; first compound 0.005 µM,0.397
same,relative viability,NCI-H838; first compound 0.01581 µM,0.379
same,relative viability,NCI-H838; first compound 0.05 µM,0.4
same,relative viability,NCI-H838; first compound 0.1581 µM,0.273
same,relative viability,NCI-H838; first compound 0.5 µM,0.185
same,relative viability,HCC-44; first compound 0.005 µM,0.376
same,relative viability,HCC-44; first compound 0.01581 µM,0.461
same,relative viability,HCC-44; first compound 0.05 µM,0.413
same,relative viability,HCC-44; first compound 0.1581 µM,0.189
same,relative viability,HCC-44; first compound 0.5 µM,0.226
same,relative viability,NCI-H650; first compound 0.005 µM,0.438
same,relative viability,NCI-H650; first compound 0.01581 µM,0.424
same,relative viability,NCI-H650; first compound 0.05 µM,0.235
same,relative viability,NCI-H650; first compound 0.1581 µM,0.194
same,relative viability,NCI-H650; first compound 0.5 µM,0.206
same,relative viability,NCI-H358; first compound 0.005 µM,0.608
same,relative viability,NCI-H358; first compound 0.01581 µM,0.631
same,relative viability,NCI-H358; first compound 0.05 µM,0.35
same,relative viability,NCI-H358; first compound 0.1581 µM,0.104
same,relative viability,NCI-H358; first compound 0.5 µM,0.091
same,relative viability,EKVX; first compound 0.005 µM,0.573
same,relative viability,EKVX; first compound 0.01581 µM,0.499
same,relative viability,EKVX; first compound 0.05 µM,0.635
same,relative viability,EKVX; first compound 0.1581 µM,0.37
same,relative viability,EKVX; first compound 0.5 µM,0.22
same,relative viability,NCI-H23; first compound 0.005 µM,0.582
same,relative viability,NCI-H23; first compound 0.01581 µM,0.502
same,relative viability,NCI-H23; first compound 0.05 µM,0.507
same,relative viability,NCI-H23; first compound 0.1581 µM,0.272
same,relative viability,NCI-H23; first compound 0.5 µM,0.161
same,relative viability,NCI-H1650; first compound 0.005 µM,0.44
same,relative viability,NCI-H1650; first compound 0.01581 µM,0.507
same,relative viability,NCI-H1650; first compound 0.05 µM,0.354
same,relative viability,NCI-H1650; first compound 0.1581 µM,0.311
same,relative viability,NCI-H1650; first compound 0.5 µM,0.259
same,relative viability,NCI-H441; first compound 0.005 µM,0.629
same,relative viability,NCI-H441; first compound 0.01581 µM,0.638
same,relative viability,NCI-H441; first compound 0.05 µM,0.617
same,relative viability,NCI-H441; first compound 0.1581 µM,0.422
same,relative viability,NCI-H441; first compound 0.5 µM,0.291
same,relative viability,HCC-15; first compound 0.005 µM,0.597
same,relative viability,HCC-15; first compound 0.01581 µM,0.67
same,relative viability,HCC-15; first compound 0.05 µM,0.669
same,relative viability,HCC-15; first compound 0.1581 µM,0.56
same,relative viability,HCC-15; first compound 0.5 µM,0.412
same,relative viability,BEN; first compound 0.005 µM,0.5
same,relative viability,BEN; first compound 0.01581 µM,0.315
same,relative viability,BEN; first compound 0.05 µM,0.309
same,relative viability,BEN; first compound 0.1581 µM,0.263
same,relative viability,BEN; first compound 0.5 µM,0.217
same,relative viability,NCI-H2342; first compound 0.005 µM,0.511
same,relative viability,NCI-H2342; first compound 0.01581 µM,0.591
same,relative viability,NCI-H2342; first compound 0.05 µM,0.511
same,relative viability,NCI-H2342; first compound 0.1581 µM,0.549
same,relative viability,NCI-H2342; first compound 0.5 µM,0.459
same,relative viability,HCC-827; first compound 0.005 µM,0.467
same,relative viability,HCC-827; first compound 0.01581 µM,0.348
same,relative viability,HCC-827; first compound 0.05 µM,0.265
same,relative viability,HCC-827; first compound 0.1581 µM,0.175
same,relative viability,HCC-827; first compound 0.5 µM,0.159
same,relative viability,NCI-H1437; first compound 0.005 µM,0.797
same,relative viability,NCI-H1437; first compound 0.01581 µM,0.584
same,relative viability,NCI-H1437; first compound 0.05 µM,0.541
same,relative viability,NCI-H1437; first compound 0.1581 µM,0.233
same,relative viability,NCI-H1437; first compound 0.5 µM,0.211
same,relative viability,A-427; first compound 0.005 µM,0.4
same,relative viability,A-427; first compound 0.01581 µM,0.259
same,relative viability,A-427; first compound 0.05 µM,0.275
same,relative viability,A-427; first compound 0.1581 µM,0.16
same,relative viability,A-427; first compound 0.5 µM,0.177
same,relative viability,NCI-H1975; first compound 0.005 µM,0.532
same,relative viability,NCI-H1975; first compound 0.01581 µM,0.775
same,relative viability,NCI-H1975; first compound 0.05 µM,0.917
same,relative viability,NCI-H1975; first compound 0.1581 µM,0.6
same,relative viability,NCI-H1975; first compound 0.5 µM,0.315
same,relative viability,HARA; first compound 0.005 µM,0.438
same,relative viability,HARA; first compound 0.01581 µM,0.236
same,relative viability,HARA; first compound 0.05 µM,0.149
same,relative viability,HARA; first compound 0.1581 µM,0.107
same,relative viability,HARA; first compound 0.5 µM,0.101
same,relative viability,SW 900; first compound 0.005 µM,0.396
same,relative viability,SW 900; first compound 0.01581 µM,0.34
same,relative viability,SW 900; first compound 0.05 µM,0.335
same,relative viability,SW 900; first compound 0.1581 µM,0.145
same,relative viability,SW 900; first compound 0.5 µM,0.136
same,relative viability,COR-L23; first compound 0.005 µM,0.396
same,relative viability,COR-L23; first compound 0.01581 µM,0.546
same,relative viability,COR-L23; first compound 0.05 µM,0.546
same,relative viability,COR-L23; first compound 0.1581 µM,0.16
same,relative viability,COR-L23; first compound 0.5 µM,0.116
same,relative viability,SK-MES-1; first compound 0.005 µM,0.343
same,relative viability,SK-MES-1; first compound 0.01581 µM,0.282
same,relative viability,SK-MES-1; first compound 0.05 µM,0.18
same,relative viability,SK-MES-1; first compound 0.1581 µM,0.297
same,relative viability,SK-MES-1; first compound 0.5 µM,0.267
same,relative viability,201T; first compound 0.005 µM,0.711
same,relative viability,201T; first compound 0.01581 µM,0.782
same,relative viability,201T; first compound 0.05 µM,0.562
same,relative viability,201T; first compound 0.1581 µM,0.382
same,relative viability,201T; first compound 0.5 µM,0.272
same,relative viability,NCI-H596; first compound 0.005 µM,0.682
same,relative viability,NCI-H596; first compound 0.01581 µM,0.702
same,relative viability,NCI-H596; first compound 0.05 µM,0.592
same,relative viability,NCI-H596; first compound 0.1581 µM,0.418
same,relative viability,NCI-H596; first compound 0.5 µM,0.317
